Like-named read-outs stand apart in the source and are kept apart here. Numbered stars: 1 amine (or outer) side, 2 acyl side, 3 side chain; on linkers, the order of the positions; unused ones are H or OH. Square brackets hold non-standard residues; d marks the D form. Side chains are listed from the residue outwards. Peptide text beside a SMILES is read from it. * marks the point of attachment. γGlu = O=C(O)[C@H](CCC(=O)[*:2])N[*:1]; αMeF = C[C@](N)(Cc1ccccc1)C(=O)O; αMeK = C[C@](N)(CCCCN)C(=O)O; Lauroyl = CCCCCCCCCCCC(=O)*; αMeS = C[C@](N)(CO)C(=O)O; AEEA = NCCOCCOCC(=O)O; Aib = CC(C)(N)C(=O)O
Assays:
Format in all cases: cell-based
[1] = biological target: T1, human GLP-1 receptor (GLP-1R) (Homo sapiens, UniProt P43220); test: cAMP assay, human GLP-1R cells
T1 construct: expressed in transfected cells
Summary of the method: (§1)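 Peptide-stimulated cAMP measured by two-step HTRF after a 30 min room-temperature incubation with receptor-expressing cells (hGLP-1R, hGIPR at 1×10^5 cells/ml; hGCGR at 2×10^5 cells/ml). Duplicate dilutions; EC50 from 4-parameter logistic fit of % Delta F.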

[2] = biological target: T2, human glucagon receptor (GCGR) (Homo sapiens, UniProt P47871); test: cAMP assay, human GCGR cells
T2 construct: expressed in transfected cells
Summary of the method: as §1

[3] = biological target: T3, human glucose-dependent insulinotropic peptide receptor (GIPR) (Homo sapiens, UniProt P48546); test: cAMP assay, human GIPR cells
T3 construct: expressed in transfected cells
T3 sequence (P48546 22-466): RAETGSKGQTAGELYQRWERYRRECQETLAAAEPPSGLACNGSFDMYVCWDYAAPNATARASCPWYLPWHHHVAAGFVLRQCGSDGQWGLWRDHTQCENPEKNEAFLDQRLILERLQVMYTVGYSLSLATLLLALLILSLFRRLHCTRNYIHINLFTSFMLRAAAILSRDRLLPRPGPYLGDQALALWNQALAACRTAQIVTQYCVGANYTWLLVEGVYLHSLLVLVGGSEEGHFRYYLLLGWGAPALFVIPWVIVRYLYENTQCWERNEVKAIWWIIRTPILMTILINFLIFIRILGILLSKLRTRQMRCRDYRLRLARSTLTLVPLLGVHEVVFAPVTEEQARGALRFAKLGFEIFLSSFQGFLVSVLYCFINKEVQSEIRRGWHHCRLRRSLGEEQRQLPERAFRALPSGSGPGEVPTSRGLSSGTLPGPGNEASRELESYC
Summary of the method: as §1

[4] = mean of n1 and n2, read-out: Mean pM GLP-1R

T2 sequence (P47871 26-477): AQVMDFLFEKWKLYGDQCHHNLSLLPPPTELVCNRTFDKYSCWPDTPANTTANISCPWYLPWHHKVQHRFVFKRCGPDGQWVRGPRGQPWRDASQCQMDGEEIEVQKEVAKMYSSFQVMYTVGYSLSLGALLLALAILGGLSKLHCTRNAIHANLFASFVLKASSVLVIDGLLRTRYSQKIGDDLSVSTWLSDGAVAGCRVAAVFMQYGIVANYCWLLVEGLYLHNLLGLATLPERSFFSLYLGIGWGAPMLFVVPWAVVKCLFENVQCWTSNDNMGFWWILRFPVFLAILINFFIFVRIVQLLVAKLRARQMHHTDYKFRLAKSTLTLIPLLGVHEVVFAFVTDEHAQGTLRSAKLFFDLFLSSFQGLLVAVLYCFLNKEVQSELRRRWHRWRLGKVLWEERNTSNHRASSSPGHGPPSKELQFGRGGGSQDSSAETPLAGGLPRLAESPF
T1 sequence (P43220 24-463): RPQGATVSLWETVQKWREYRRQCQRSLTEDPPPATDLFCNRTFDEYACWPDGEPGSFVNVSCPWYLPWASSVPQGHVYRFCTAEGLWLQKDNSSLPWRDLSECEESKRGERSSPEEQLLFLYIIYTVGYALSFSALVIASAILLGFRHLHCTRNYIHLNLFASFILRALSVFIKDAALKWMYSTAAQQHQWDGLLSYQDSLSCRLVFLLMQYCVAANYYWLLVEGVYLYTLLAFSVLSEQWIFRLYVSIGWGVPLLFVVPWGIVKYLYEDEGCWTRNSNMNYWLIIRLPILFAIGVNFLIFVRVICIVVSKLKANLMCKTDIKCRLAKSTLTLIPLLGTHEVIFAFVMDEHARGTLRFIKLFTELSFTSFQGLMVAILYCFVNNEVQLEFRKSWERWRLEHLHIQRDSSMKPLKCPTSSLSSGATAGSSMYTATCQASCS

Row | EC50 ([1]; first run (n1), cAMP activity, read-out: Primary assay EC50 GLP-1R n1) | EC50 [1, 4] | EC50 ([1]; second run (n2), cAMP activity, read-out: Primary assay EC50 GLP-1R n2) | EC50 ([2]; first run (n1), cAMP activity of substituted and mono-lipidated peptides, read-out: Primary assay EC50 Gluc-R) | EC50 ([3]; first run (n1), cAMP activity, read-out: Primary assay EC50 GIP-R) | EC50 ([1]; cAMP assay, first determination (n1), read-out: Primary assay EC50 GLP-1R n1) | EC50 ([1]; cAMP assay, second determination (n2), read-out: Primary assay EC50 GLP-1R n2) | EC50 ([2]; cAMP assay, first determination (n1), read-out: Primary assay EC50 Gluc-R (n1)) | EC50 ([2]; cAMP assay, second determination (n2), read-out: Primary assay EC50 Gluc-R (n2)) | EC50 ([3]; cAMP assay, first determination (n1), read-out: Primary assay EC50 GIP-R (n1)) | EC50 ([3]; cAMP assay, second determination (n2), read-out: Primary assay EC50 GIP-R (n2)) | EC50 ([1]; tris-lipidated peptides, mean of n1 and n2, read-out: Primary assay EC50 Mean pM GLP-1R) | EC50 ([1]; tris-lipidated peptides, replicate n1, read-out: Primary assay EC50 GLP-1R n1) | EC50 ([1]; tris-lipidated peptides, replicate n2, read-out: Primary assay EC50 GLP-1R n2) | EC50 ([2]; tris-lipidated peptides, first replicate, read-out: Primary assay EC50 Gluc-R (n1)) | EC50 ([3]; tris-lipidated peptides, first replicate, read-out: Primary assay EC50 GIP-R (n1)) | Compound
1 | 170 pM | 113 pM | 60 pM | ≥ 27 nM | ≥ 27 nM |  |  |  |  |  |  |  |  |  |  |  | CC[C@H](C)[C@H](NC(=O)[C@](C)(Cc1ccccc1)NC(=O)[C@H](CCC(=O)O)NC(=O)[C@](C)(CCCCN)NC(=O)[C@H](C)NC(=O)[C@H](C)NC(=O)[C@H](CCC(=O)O)NC(=O)CNC(=O)[C@H](CCC(=O)O)NC(=O)[C@H](CC(C)C)NC(=O)[C@](C)(Cc1ccccc1)NC(=O)[C@H](CO)NC(=O)[C@](C)(CO)NC(=O)[C@@H](NC(=O)[C@H](CC(=O)O)NC(=O)[C@H](CO)NC(=O)[C@@H](NC(=O)[C@](C)(Cc1ccccc1)NC(=O)[C@H](CO)NC(=O)CNC(=O)[C@H](CCC(=O)O)NC(=O)C(C)(C)NC(=O)[C@@H](N)Cc1c[nH]cn1)[C@@H](C)O)C(C)C)C(=O)N[C@@H](C)C(=O)N[C@@](C)(Cc1ccccc1)C(=O)N[C@H](C(=O)N[C@H](C(=O)N[C@@H](CCCCNC(=O)CC[C@H](NC(=O)CC[C@H](NC(=O)CCCCCCCCCCCCCCCCC(=O)O)C(=O)O)C(=O)O)C(=O)NCC(=O)NCC(N)=O)C(C)C)C(C)C [compound 192]
2 |  | 18.2 pM |  |  |  | 22 pM | 15 pM | ≥ 26 nM | ≥ 26 nM | ≥ 26 nM | ≥ 26 nM |  |  |  |  |  | CCCCCCCCCCCCCCCCCC(=O)NCCCCCC(=O)NCCCCCC(=O)NCCCCCC(=O)NCCCC[C@H](NC(=O)[C@H](C)NC(=O)[C@H](C)NC(=O)[C@H](CCC(=O)O)NC(=O)CNC(=O)[C@H](CCC(=O)O)NC(=O)[C@H](CC(C)C)NC(=O)[C@](C)(Cc1ccccc1)NC(=O)[C@H](CO)NC(=O)[C@](C)(CO)NC(=O)[C@@H](NC(=O)[C@H](CC(=O)O)NC(=O)[C@H](CO)NC(=O)[C@@H](NC(=O)[C@](C)(Cc1ccccc1)NC(=O)[C@H](CO)NC(=O)CNC(=O)[C@H](CCC(=O)O)NC(=O)C(C)(C)NC(=O)[C@@H](N)Cc1c[nH]cn1)[C@@H](C)O)C(C)C)C(=O)N[C@@H](CCC(=O)O)C(=O)N[C@@](C)(Cc1ccccc1)C(=O)N[C@H](C(=O)N[C@@H](C)C(=O)N[C@@](C)(Cc1ccccc1)C(=O)N[C@H](C(=O)N[C@H](C(=O)N[C@@](C)(CCCCN)C(=O)NCC(=O)NCC(N)=O)C(C)C)C(C)C)[C@@H](C)CC [compound 151]
3 |  |  |  |  |  |  |  |  |  |  |  | 117 pM | 101 pM | 133 pM | 20 nM | 20 nM | CCCCCCCCCCCC(=O)N[C@@H](CCC(=O)NCCOCCOCC(=O)NCCOCCOCC(=O)NCCCC[C@H](NC(=O)[C@H](C)NC(=O)[C@@H](NC(=O)[C@H](Cc1ccccc1)NC(=O)[C@H](CCC(=O)O)NC(=O)[C@](C)(CCCCN)NC(=O)[C@H](C)NC(=O)[C@H](CCCCNC(=O)COCCOCCNC(=O)COCCOCCNC(=O)CC[C@H](NC(=O)CCCCCCCCCCC)C(=O)O)NC(=O)[C@H](CCC(=O)O)NC(=O)CNC(=O)[C@H](CCC(=O)O)NC(=O)[C@H](CC(C)C)NC(=O)[C@H](CCCCNC(=O)COCCOCCNC(=O)COCCOCCNC(=O)CC[C@H](NC(=O)CCCCCCCCCCC)C(=O)O)NC(=O)[C@H](CO)NC(=O)[C@](C)(CO)NC(=O)[C@@H](NC(=O)[C@H](CC(=O)O)NC(=O)[C@H](CO)NC(=O)[C@@H](NC(=O)[C@](C)(Cc1ccccc1)NC(=O)[C@H](CO)NC(=O)CNC(=O)[C@H](CCC(=O)O)NC(=O)C(C)(C)NC(=O)[C@@H](N)Cc1c[nH]cn1)[C@@H](C)O)C(C)C)[C@@H](C)CC)C(=O)N[C@H](C(=O)N[C@H](C(=O)N[C@@H](CCC(=O)O)C(=O)NCC(=O)NCC(N)=O)C(C)C)C(C)C)C(=O)O [compound 465] (H-H[Aib]EGS[αMeF]TSDV[αMeS]SK([AEEA-AEEA-γGlu-Lauroyl])LEGEK([AEEA-AEEA-γGlu-Lauroyl])A[αMeK]EFIAK([AEEA-AEEA-γGlu-Lauroyl])VVEGG-NH2)

Source: US10414811B2, “Protease-resistant lipidated GLP-1 analogs” (MEDIMMUNE LIMITED, priority 2015, dated 2019)
